Test results published in US6046171A, “6,11-bridged erythromycin derivatives” (priority 1998, dated 2000).
≈ marks a conversion by molar mass, not a printed value.

Assays:
Type in all cases: cell-based
Candida albicans CCH 442 = test: in vitro MIC, agar dilution; conditions: organism code TT; 35-37° C., 20 to 24 hours; unit assumed
Method: (§1) Representative compounds of the present invention were assayed in vitro for antibacterial activity as follows: Twelve petri dishes containing successive aqueous dilutions of the test compound mixed with 10 mL of sterilized Brain Heart Infusion (BHI) agar (Difco 0418-01-5) were prepared. Each plate was inoculated with 1:100 (or 1:10 for slow-growing strains, such as Micrococcus and Streptococcus) dilutions of up to 32 different microorganisms, using a Steers replicator block. […] In addition, a control plate, using BHI agar containing no test compound, was prepared and incubated at the beginning and end of each test.
(§2) An additional plate containing a compound having known susceptibility patterns for the organisms being tested and belonging to the same antibiotic class as the test compound was also prepared and incubated as a further control, as well as to provide test-to-test comparability.
(§3) After incubation, each plate was visually inspected. The minimum inhibitory concentration (MIC) was defined as the lowest concentration of drug yielding no growth, a slight haze, or sparsely isolated colonies on the inoculum spot as compared to the growth control.

[1] = test system: Staphylococcus aureus ATCC 6538P; test: in vitro antibacterial MIC, agar dilution (BHI agar, Steers replicator); conditions: organism code AA; 35-37° C., 20 to 24 hours; unit assumed
Method: as §1, §2, §3

[2] = test system: Staphylococcus epidermidis 3519; test: in vitro antibacterial MIC, agar dilution; conditions: organism code HH; 35-37° C., 20 to 24 hours; unit assumed
Method: as §1, §2, §3

[3] = test system: Micrococcus luteus ATCC 4698; test: in vitro antibacterial MIC, agar dilution; conditions: organism code PP; 35-37° C., 20 to 24 hours; unit assumed
Method: as §1, §2, §3

[4] = test system: Streptococcus agalactiae CMX 508; test: in vitro antibacterial MIC, agar dilution; conditions: organism code KK; 35-37° C., 20 to 24 hours; unit assumed
Method: as §1, §2, §3

[5] = test system: Haemophilis Influenzae DILL AMP R; test: in vitro antibacterial MIC, agar dilution; conditions: organism code WW; 35-37° C., 20 to 24 hours; unit assumed
Method: as §1, §2, §3

[6] = test system: Streptococcus Pheumoniae 5649; test: in vitro antibacterial MIC, agar dilution; conditions: organism code ZZA; 35-37° C., 20 to 24 hours; unit assumed
Method: as §1, §2, §3

[7] = test system: Streptococcus Pheumoniae GYR 1171; test: in vitro antibacterial MIC, agar dilution; conditions: organism code YY; 35-37° C., 20 to 24 hours; unit assumed
Method: as §1, §2, §3

[8] = test system: Streptococcus pyogenes PIU 2548; test: in vitro antibacterial MIC, agar dilution; conditions: organism code NN; 35-37° C., 20 to 24 hours; unit assumed
Method: as §1, §2, §3

[9] = test system: Staphylococcus aureus A5177; test: in vitro antibacterial MIC, agar dilution; conditions: organism code BB; 35-37° C., 20 to 24 hours; unit assumed
Method: as §1, §2, §3

[10] = test system: Micrococcus luteus ATCC 9341; test: in vitro antibacterial MIC, agar dilution; conditions: organism code OO; 35-37° C., 20 to 24 hours; unit assumed
Method: as §1, §2, §3

[11] = test system: Staphylococcus aureus 1775; test: in vitro antibacterial MIC, agar dilution; conditions: organism code GG; 35-37° C., 20 to 24 hours; unit assumed
Method: as §1, §2, §3

[12] = test system: Enterococcus faecium ATCC 8Q43; test: in vitro antibacterial MIC, agar dilution; conditions: organism code II; 35-37° C., 20 to 24 hours; unit assumed
Method: as §1, §2, §3

Escherichia coli SS = test: in vitro antibacterial MIC, agar dilution; conditions: organism code RR; 35-37° C., 20 to 24 hours; unit assumed
Method: as §1, §2, §3

[13] = test system: Streptococcus pyogenes 930; test: in vitro antibacterial MIC, agar dilution; conditions: organism code MM; 35-37° C., 20 to 24 hours; unit assumed
Method: as §1, §2, §3

[14] = test system: Mycobacterium smegmatis ATCC 114; test: in vitro antibacterial MIC, agar dilution; conditions: organism code UU; 35-37° C., 20 to 24 hours; unit assumed
Method: as §1, §2, §3

Escherichia coli JUHL = test: in vitro antibacterial MIC, agar dilution; conditions: organism code QQ; 35-37° C., 20 to 24 hours; unit assumed
Method: as §1, §2, §3

[15] = test system: Staphylococcus aureus A-5278; test: in vitro antibacterial MIC, agar dilution; conditions: organism code CC; 35-37° C., 20 to 24 hours; unit assumed
Method: as §1, §2, §3

[16] = test system: Staphylococcus aureus CMX 642A; test: in vitro antibacterial MIC, agar dilution; conditions: organism code DD; 35-37° C., 20 to 24 hours; unit assumed
Method: as §1, §2, §3

[17] = test system: Streptococcus bovis A-5169; test: in vitro antibacterial MIC, agar dilution; conditions: organism code JJ; 35-37° C., 20 to 24 hours; unit assumed
Method: as §1, §2, §3

[18] = test system: Staphylococcus aureus CMX 553; test: in vitro antibacterial MIC, agar dilution; conditions: organism code FF; 35-37° C., 20 to 24 hours; unit assumed
Method: as §1, §2, §3

[19] = test system: Streptococcus Pheumoniae ATCC6303; test: in vitro antibacterial MIC, agar dilution; conditions: organism code XX; 35-37° C., 20 to 24 hours; unit assumed
Method: as §1, §2, §3

Escherichia coli DC-2 = test: in vitro antibacterial MIC, agar dilution; conditions: organism code SS; 35-37° C., 20 to 24 hours; unit assumed
Method: as §1, §2, §3

[20] = test system: Staphylococcus aureus NCTC10649M; test: in vitro antibacterial MIC, agar dilution; conditions: organism code EE; 35-37° C., 20 to 24 hours; unit assumed
Method: as §1, §2, §3

[21] = test system: Streptococcus pyogenes EES61; test: in vitro antibacterial MIC, agar dilution; conditions: organism code LL; 35-37° C., 20 to 24 hours; unit assumed
Method: as §1, §2, §3

[22] = test system: Nocardia Asteroides ATCC9970; test: in vitro antibacterial MIC, agar dilution; conditions: organism code VV; 35-37° C., 20 to 24 hours; unit assumed
Method: as §1, §2, §3

[23] = test system: Streptococcus Pheumoniae 5979; test: in vitro antibacterial MIC, agar dilution; conditions: organism code ZZ; 35-37° C., 20 to 24 hours; unit assumed
Method: as §1, §2, §3

SMILES	MIC (Candida albicans CCH 442) [µg/mL]	MIC [1] [µg/mL]	MIC [2] [µg/mL]	MIC [3] [µg/mL]	MIC [4] [µg/mL]	MIC [5] [µg/mL]	MIC [6] [µg/mL]	MIC [7] [µg/mL]	MIC [8] [µg/mL]	MIC [9] [µg/mL]	MIC [10] [µg/mL]	MIC [11] [µg/mL]	MIC [12] [µg/mL]	MIC [16] [µg/mL]	MIC [17] [µg/mL]	MIC [18] [µg/mL]	MIC [19] [µg/mL]	MIC [20] [µg/mL]	MIC [21] [µg/mL]	MIC [22] [µg/mL]	other results
CC[C@H]1OC(=O)[C@H](C)[C@@H](O[C@H]2C[C@@](C)(OC)[C@@H](O)[C@H](C)O2)[C@H](C)[C@@H](O[C@@H]2O[C@H](C)C[C@H](N(C)C)[C@H]2O)[C@](C)(O)C[C@@H](C)C(=O)[C@H](C)[C@@H](O)[C@]1(C)O [Ery. A, Erythromycin A, reference compound]	> 100	0.2 (≈ 0.273 µM)	0.39 (≈ 0.531 µM)	0.2 (≈ 0.273 µM)	0.05 (≈ 0.0681 µM)	4 (≈ 5.45 µM)	16 (≈ 21.8 µM)	0.06 (≈ 0.0818 µM)	6.2 (≈ 8.45 µM)	3.1 (≈ 4.22 µM)	0.05 (≈ 0.0681 µM)	> 100	0.05 (≈ 0.0681 µM)	0.39 (≈ 0.531 µM)	0.02 (≈ 0.0273 µM)	0.39 (≈ 0.531 µM)	0.06 (≈ 0.0818 µM)	0.39 (≈ 0.531 µM)	0.05 (≈ 0.0681 µM)	0.1 (≈ 0.136 µM)	MIC (Escherichia coli SS): 0.78 µg/mL (≈ 1.06 µM); MIC [13]: > 100 µg/mL; MIC [14]: 3.1 µg/mL (≈ 4.22 µM); MIC (Escherichia coli JUHL): > 100 µg/mL; MIC [15]: > 100 µg/mL; MIC (Escherichia coli DC-2): > 100 µg/mL
CC[C@H]1OC(=O)[C@H](C)[C@@H](O[C@H]2C[C@@](C)(OC)[C@@H](O)[C@H](C)O2)[C@H](C)[C@@H](O[C@@H]2O[C@H](C)C[C@H](N(C)C)[C@H]2O)[C@@]2(C)C[C@@H](C)C(=O)[C@H](C)[C@H]3N(CC=CCO2)C(=O)O[C@]13C [Example 14]	> 100	0.2 (≈ 0.247 µM)	0.2 (≈ 0.247 µM)	0.39 (≈ 0.481 µM)	0.05 (≈ 0.0617 µM)	8 (≈ 9.86 µM)	16 (≈ 19.7 µM)	0.03 (≈ 0.037 µM)	6.2 (≈ 7.64 µM)	3.1 (≈ 3.82 µM)	0.05 (≈ 0.0617 µM)	> 100	0.1 (≈ 0.123 µM)	0.2 (≈ 0.247 µM)	0.05 (≈ 0.0617 µM)	0.2 (≈ 0.247 µM)	0.03 (≈ 0.037 µM)	0.39 (≈ 0.481 µM)	0.05 (≈ 0.0617 µM)	0.05 (≈ 0.0617 µM)	MIC (Escherichia coli SS): 0.78 µg/mL (≈ 0.962 µM); MIC [13]: > 100 µg/mL; MIC [14]: 0.78 µg/mL (≈ 0.962 µM); MIC (Escherichia coli JUHL): 50 µg/mL (≈ 61.7 µM); MIC [15]: > 100 µg/mL; MIC [23]: > 128 µg/mL; MIC (Escherichia coli DC-2): > 100 µg/mL
CC[C@H]1OC(=O)[C@H](C)C(=O)[C@H](C)[C@@H](O[C@@H]2O[C@H](C)C[C@H](N(C)C)[C@H]2O)[C@@]2(C)C[C@@H](C)C(=O)[C@H](C)[C@H]3N(CCC=CCO2)C(=O)O[C@]13C [Example 18]		0.78 (≈ 1.17 µM)		0.78 (≈ 1.17 µM)	0.2 (≈ 0.301 µM)	128 (≈ 193 µM)	2 (≈ 3.01 µM)			0.78 (≈ 1.17 µM)	0.39 (≈ 0.587 µM)		0.39 (≈ 0.587 µM)	0.78 (≈ 1.17 µM)	0.2 (≈ 0.301 µM)	0.78 (≈ 1.17 µM)	1 (≈ 1.5 µM)	0.78 (≈ 1.17 µM)	0.2 (≈ 0.301 µM)	0.78 (≈ 1.17 µM)	MIC [23]: > 128 µg/mL
CC[C@H]1OC(=O)[C@H](C)[C@@H](O[C@H]2C[C@@](C)(OC)[C@@H](O)[C@H](C)O2)[C@H](C)[C@@H](O[C@@H]2O[C@H](C)C[C@H](N(C)C)[C@H]2O)[C@@]2(C)C[C@@H](C)C(=O)[C@H](C)[C@H]3N(CC(=O)CC=CCO2)C(=O)O[C@]13C [Example 20]	> 100	3.1 (≈ 3.63 µM)	3.1 (≈ 3.63 µM)	0.78 (≈ 0.914 µM)	0.39 (≈ 0.457 µM)	8 (≈ 9.38 µM)	1 (≈ 1.17 µM)	0.25 (≈ 0.293 µM)	25 (≈ 29.3 µM)	12.5 (≈ 14.7 µM)	0.2 (≈ 0.234 µM)	> 100	0.2 (≈ 0.234 µM)	3.1 (≈ 3.63 µM)	0.2 (≈ 0.234 µM)	3.1 (≈ 3.63 µM)	0.25 (≈ 0.293 µM)	3.1 (≈ 3.63 µM)	0.2 (≈ 0.234 µM)	0.2 (≈ 0.234 µM)	MIC (Escherichia coli SS): 3.1 µg/mL (≈ 3.63 µM); MIC [13]: 100 µg/mL (≈ 117 µM); MIC [14]: 0.39 µg/mL (≈ 0.457 µM); MIC (Escherichia coli JUHL): > 100 µg/mL; MIC [15]: > 100 µg/mL; MIC [23]: 128 µg/mL (≈ 150 µM); MIC (Escherichia coli DC-2): > 100 µg/mL
CC[C@H]1OC(=O)[C@H](C)C(=O)[C@H](C)[C@@H](O[C@@H]2O[C@H](C)C[C@H](N(C)C)[C@H]2O)[C@@]2(C)C[C@@H](C)C(=O)[C@H](C)[C@H]3N(CCNC(=O)c4ccccc4C=CCO2)C(=O)O[C@]13C [Example 21]	> 100	1.56 (≈ 1.99 µM)	1.56 (≈ 1.99 µM)	0.39 (≈ 0.497 µM)	0.1 (≈ 0.128 µM)	64 (≈ 81.6 µM)	2 (≈ 2.55 µM)	0.25 (≈ 0.319 µM)	0.78 (≈ 0.995 µM)	1.56 (≈ 1.99 µM)	0.2 (≈ 0.255 µM)	> 100	0.2 (≈ 0.255 µM)	3.1 (≈ 3.95 µM)	0.1 (≈ 0.128 µM)	3.1 (≈ 3.95 µM)	0.25 (≈ 0.319 µM)	3.1 (≈ 3.95 µM)	0.1 (≈ 0.128 µM)	0.39 (≈ 0.497 µM)	MIC (Escherichia coli SS): 1.56 µg/mL (≈ 1.99 µM); MIC [13]: > 100 µg/mL; MIC [14]: 6.2 µg/mL (≈ 7.91 µM); MIC (Escherichia coli JUHL): > 100 µg/mL; MIC [15]: > 100 µg/mL; MIC [23]: > 128 µg/mL; MIC (Escherichia coli DC-2): > 100 µg/mL
